Common to all, as to test: DTP human tumour cell line panel, 48 h
Assay [1] deals with SK-OV-3 ovarian.
Assay [2] deals with MDA-MB-435.
For assay [3], the system named is SN12C renal.
The test system of assay [4] is ACHN renal.
In assay [5] the test system is SW-620 colon.
For assay [6], the system named is OVCAR-5 ovarian.
Assay [7] has as its system SK-MEL-2 melanoma.
The test system of assay [8] is A549 NSCLC.
Assay [9] deals with MALME-3M melanoma.
In assay [10] the test system is HT29 colon.

Structures are written as SMILES.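 Five compound concentrations were applied to cells in 96-well plates for 48 hours; endpoints were derived by simple linear interpolation of the resulting dose-response curve. TGI is the concentration that stops growth completely.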

The TGI is the concentration at which net growth stops. High values mean less potent growth arrest, low ones more potent growth arrest. As to `O=c1oc2ccccc2c2c(=O)c3ccc(OC/C(=N/O)c4ccc(Cl)cc4)cc3oc12`, the TGI stood at 24.3 µM in assay [1]; 7.89 µM in assay [2]; 51.2 µM in assay [3]; 19.2 µM in assay [4]; 37 µM in [5]; 37 µM in [6]. The TGI in assay [7] came out at 24.1 µM; in [8], 32 µM.
On to `CNC(=O)N1CN(c2ccccc2)C2(CCN(CCCC(=O)c3ccc(F)cc3)CC2)C1=O`, for which the TGI in assay [1] was 79.9 µM; in assay [3] it was 75.4 µM; in assay [4], 75.5 µM; in assay [5], above 100 µM; in assay [6], 29 µM; in [9], 35.3 µM. In addition, the TGI in assay [10] was 26.9 µM; in assay [8], above 100 µM.
For the molecule `COC(=O)C1CC2(CCC1=O)Cc1ccccc1C2=O` (centres undefined), the TGI in assay [1], in [3], in [4], in assay [5], in assay [6] and in [9] was above 100 µM throughout. Also, the TGI in assay [10], in [7] and in assay [8] was above 100 µM in each case.
For `O=[N+]([O-])/C=C1\COCc2cc3c(cc21)OCO3`, the TGI is above 100 µM in assay [1]; 28.2 µM in [2]; 47.2 µM in assay [3]; 43.3 µM in assay [4]; 47.4 µM in assay [5]; 43.4 µM in [6]. For the same molecule, the TGI turned out to be 67.2 µM in assay [10] and 39.8 µM in assay [8].
`N#CC(c1ccccc1)c1nc2ccc(=N)cc-2n(O)c1C(C#N)c1ccccc1` (centres undefined): the TGI in assay [1], in assay [3], in assay [4], in [5], in [6] and in assay [9] was above 100 µM throughout. For the same molecule, the TGI in assay [10], in [7] and in assay [8] was above 100 µM throughout.
`CCOC(=O)C1=C(O)C(=O)c2ccsc2C1=O`: the concentration for total growth inhibition (TGI) in assay [1], in [3], in [4], in [5], in assay [6] and in [9] was above 100 µM in each case. Moreover, the TGI in assay [10], in [7] and in assay [8] was above 100 µM each time.
With `CC12NN=NC1C(=O)NC2=O` (centres undefined), the total growth inhibition concentration (TGI) in [1], in assay [3], in [4], in assay [5], in assay [10] and in [7] was above 100 µM throughout. Besides, the total growth inhibition concentration (TGI) in assay [8] was above 100 µM.
For the molecule `COc1cc(OC)c(/C=C2\N=C(C)N(Nc3nnc(NN4C(=O)/C(=C/c5c(OC)cc(OC)cc5OC)N=C4C)c4ccccc34)C2=O)c(OC)c1`, the TGI in [3], in assay [4], in assay [5], in assay [6], in assay [10] and in [8] was above 100 µM each time.
For `Cn1c(/C=C(\O)c2ccc(Cl)cc2)nc2ccccc21`, the TGI was above 100 µM in assay [3]; above 100 µM in [4]; above 100 µM in [5]; 67.7 µM in assay [6]; above 100 µM in assay [9]; above 100 µM in assay [10]. Besides, the results for the TGI in [7] and in assay [8] were above 100 µM and 69.4 µM, respectively.
Take `CCO[C@]12C[C@H](OC)[C@@]3(O)CC(C1[C@H]3OCc1ccccc1)C13C4C2[C@H](OC)C1[C@](COC)(CN4CC)[C@H](O)C[C@@H]3OC` (some centres undefined): the TGI in assay [1], in assay [3], in assay [4], in [5], in [6] and in assay [10] was above 100 µM throughout. The TGI in [8] was above 100 µM.
Regarding `CCOC1(COP(=O)(OCc2ccccc2)OCc2ccccc2)COC(COP(=O)(OCc2ccccc2)OCc2ccccc2)(OCC)CO1` (centres undefined), the concentration for total growth inhibition (TGI) in assay [1], in assay [3], in [4], in [5], in assay [6] and in assay [9] was above 100 µM each time. Moreover, the TGI in assay [10], in assay [7] and in [8] was above 100 µM in each case.
As for `CC(=O)C1=CSC2[C@H](NC(=O)Cc3ccccc3)C(=O)N2C1C(=O)OC(c1ccccc1)c1ccccc1` (some centres undefined), the concentration for total growth inhibition (TGI) in assay [1], in [3], in [5], in [9], in assay [10] and in assay [7] was above 100 µM throughout. This molecule also displayed a TGI in assay [8] above 100 µM.
Consider `CN(CCO)c1nc2c(c(=O)[nH]1)CCC2`, for which the TGI in assay [1], in assay [3], in [4], in assay [5], in assay [6] and in assay [9] was above 100 µM each time. Moreover, the TGI in assay [10], in [7] and in assay [8] was above 100 µM throughout.

The values above are taken from PubChem BioAssay (NCI).
